Test [1] deals with B16 tumors. The experiment in a line: In vivo antitumor activity. The conditions noted are these: B16 tumors in C57 mice; FIG. 5.
The test system of test [2] is prostate cancer, human melanoma, breast cancer and others. The test is described as follows: Anticancer screen, in vitro cell proliferation assay (MTT). It is filed as cell-based. An excerpt:
The extracts obtained as described above were fractionated by absorbing onto celite and then extracting with increasing polarities of ethyl acetate in hexane. Each fraction obtained was evaporated in-vacuo to remove the solvent and monitored by thin layer chromatography (TLC). […] The dried residue of each fraction was used in the anticancer assay to determine effect on cell proliferation. The active fraction was subjected to dry column chromatography (DCC) using normal phase silica gel activated for visualization with UV 254. This procedure led to the isolation of compounds of Formula I in pure form. The Compound A (Kuminol) and the other fractions obtained were further subjected to anticancer activity screening.
Further purification of second active fraction by use of Waters Sep Pak flash chromatography yielded compounds of the Formula II. Compound B (Vernoginin) inhibited prostate cancer, human melanoma, breast cancer and others in the in vitro cell proliferation assay.
The anticancer screen is based on the highly sensitive 3-(4,5-dimethylthiazol-2-yl)-2, S-diphenyl tetrazolium bromide (MTT) assay. […]
The anticancer activity of the extract obtained as described above was confirmed using the highly proliferative B16 cell line. […] Each of the fractions obtained was evaporated in-vacuo to remove the solvent and monitored by thin layer chromatography (TLC). […]

For test [3], the system named is human leukaemia cell line HL-60. The test is described as follows: Apoptosis determination (Annexin V and propidium iodide, flow cytometry). The conditions noted are these: 1x, 10x and 50x IC50, 0-24 h. The class given is cell-based. As for the experimental part:
The apoptotic effects of Kuminol (Compound A) and Vernoginin (Compound B) against the human leukaemia cell line HL-60 was determined. Annexin V and Propidium Iodide assay were carried out to determine whether Kuminol and Vernoginin have effect on cell cycle and induction of apoptosis in cancer cells. Cell death can result from either necrosis or apoptosis (programmed cell death).
The human leukaemia cell line HL60 were plated in RPMI1640 at 4×10^6 (2×10^5 cells/ml) and treated with 1×IC50, 10×IC50 and 50×IC50 Kuminol and Vernoginin. For cell cycle, 2 ml of the treated cells were stained with propidium iodide as per the manufactures instruction, aliquots (2 ml) of cells were removed and fixed at 3, 6, 24, 48 and 72 hours. For apoptosis, 2 ml aliquots of cells were removed at 0, 3, 6 and 24 hours and were stained with Annexin V FITC as per the manufacturer's instructions. The presence of apoptosis and cell cycle changes were detected using a Cytomics 500 Beckman Coulter Flow Cytometer (Coulter, Inc. Hialeah, Fla., USA
For orientation: A flow cytometer gives signals particle by particle.

Test [4] concerns colon cancer cell line HCT-116. The test is described as follows: Cell proliferation assay (WST-1, 72 h). It is filed as cell-based. The conditions noted are these: Homo sapiens, Colon HCT-116, average of two runs. As for the experimental part:
(§1) Breast cancer cells lines MDA-MD-231 and MCF-7, colon cancer cell line HCT-116, Leukaemia cell line HL-60, lung cancer cell line A549, melanoma cancer cell line A375, ovarian cancer cell line OVCAR3 and prostate cancer cell line PC-3 were treated with Compound A (Kuminol) and Compound B (Vernoginin) to determine the effects of the molecules on the proliferation of each cell line.
(§2) Established protocol was used to assay the anti-proliferation effects of these compounds against selected cancer cell lines. Each cell line is grown in RPMI/10% FBS/1% glutamine. On the day the experiment is initiated, cells are trypsinized and plated into 96 well plates in 50 ul of media. Compound is added approximately 18 hours after plating. Cells are plated at a density so that 72 hours post drug addition, the cells are in log phase (500-2000 cells/well). The compounds are solubilized in DMSO at a concentration of 100 mM, aliquoted and stored at −20^C. On the day of drug addition, the compounds are removed from the freezer and serially diluted in DMSO to concentrations as low as 100 nM. The compounds are then diluted 1:1000 into growth media (this is 2× the final concentration) including a DMSO alone control. 50 ul of media/compound is added to each well. The cells are allowed to proliferate for 72 hours. The experiment is terminated using WST-1 (Roche) and absorbance is read at 450 nm/690 nm IC50s are calculated in GraphPad Prism converting all values to percentage of control cell growth. Each cell line is run in duplicate and the average of the two runs is the calculated IC50 of each compound.
In general terms: Formazan colour is commonly taken as a measure of viable cells.

Test [5] concerns Breast cancer cell line MDA-MB-231. The test is described as follows: Cell proliferation assay (WST-1, 72 h). It is filed as cell-based. The conditions noted are these: Homo sapiens, Breast MDA-MB-231, average of two runs. As to the method:
as §1, §2

Test [6] deals with Breast cancer cell line MCF-7. The experiment in a line: Cell proliferation assay (WST-1, 72 h). The class given is cell-based. The settings on record: Homo sapiens, MCF7, Breast MCF-7, average of two runs. As to the method:
as §1, §2

Test [7] has as its system melanoma cancer cell line A375. The experiment in a line: Cell proliferation assay (WST-1, 72 h). The class given is cell-based. The settings on record: A-375, Human melanoma A375, average of two runs. As for the experimental part:
as §1, §2

Test [8] relates to prostate cancer cell line PC-3. The test is described as follows: Cell proliferation assay (WST-1, 72 h). The class given is cell-based. The settings on record: Prostate PC-3, average of two runs. As for the experimental part:
as §1, §2

Test [9] relates to ovarian cancer cell line OVCAR3. The test is described as follows: Cell proliferation assay (WST-1, 72 h). The class given is cell-based. The conditions noted are these: Homo sapiens, OVCAR-3, average of two runs. As to the method:
as §1, §2

Test [10] has as its system Leukaemia cell line HL-60. The experiment in a line: Cell proliferation assay (WST-1, 72 h). The class given is cell-based. The conditions noted are these: Homo sapiens, Leukaemia HL-60, average of two runs. As for the experimental part: as §1, §2
Test [11] has as its system lung cancer cell line A549. The test is described as follows: Cell proliferation assay (WST-1, 72 h). The class given is cell-based. The conditions noted are these: Homo sapiens, average of two runs. As to the method: as §1, §2

The IC50 is the concentration at which inhibition is half-maximal. Take `C=C1COC(O)/C(C(O/C=C(\C)C=O)C(=C)C(=O)O)=C\CCCC(O)C1=O` (centres unmarked) [Kuminol, 2-[(2,8-Dihydroxy-10-methylene-9-oxo-oxacycloundec-3-en-3-yl)-(2-methyl-3-oxo-propenyloxy)-methyl]-acrylic acid]: the “suppression of tumors (in words)” value in [1] is “suppression effects”. Further, the “growth inhibition in anticancer assay (in words)” value in [2] is reported as “exhibited growth inhibition”. Besides, the “induction of apoptosis (in words)” value in test [3] is reported as “induce apoptosis”. The IC50 worked out at 450 ± 7 nM in test [4]; 1010 ± 200 nM in test [5]; 670 ± 320 nM in test [6]; 350 ± 40 nM in [7]; 1000 ± 260 nM in test [8]; 740 ± 310 nM in test [9]. Moreover, the IC50 was determined as 1550 ± 470 nM in test [10] and 2040 ± 1040 nM in [11].
`C=CC(C)(CC(O)C(O)C(=C)C=O)C(O)C(C(=C)C(C)=O)C(=C)C(=O)CCO` (centres unmarked) [Vernoginin, 3,4,7,12,-Tetrahydroxy-6-methyl-2,9-dimethylene-8-(1-methylene-2-oxo-propyl)-10-oxo-6-vinyl-dodecanal]: the “growth inhibition in anticancer assay (in words)” value in [2] is given as “inhibited”. For the same molecule, in [3], the “induction of apoptosis (in words)” value is on record as “induce apoptosis”. The IC50 in [4] was found to be 140 ± 150 nM; in [5], 367 ± 30 nM; in test [6], 1560 ± 960 nM; in test [7], 130 ± 150 nM; in [9] it was 480 ± 8 nM; in test [10] it was 1120 ± 750 nM. The IC50 in test [11] came out at 1130 ± 380 nM.

These data come from patent US20120213766A1, “Anticancer Compounds from Vernonia Guineensis” (priority 2011, published 2012).
